Data reported in PubChem BioAssay AID1963848 (Molecular Pharmacology Branch, DTP, NCI, 2024).

Test system: 379773-124-R-J2-PDC spheroid viability
Experiment: Anticancer human tumor 379773-124-R-J2-PDC patient-derived endometrial carcinoma cell line growth inhibition [POLQ]
Conditions: spheroids with HUVEC and MSC; for IC50: curve of first compound; for viability, T/C: stronger effect = lower value; active means viability on the fitted dose curve at most 10% of control; inactive means the rest
Method in brief: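 PDC + HUVEC + MSC complex spheroids; POLQ inhibitors ± partner drugs; top conc. at/near clinical Cmax, else 10 microM (SN-38 1 microM), half-log dilutions; 37 degrees C, 5% CO2.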

[1] = second compound 0.0316 µM, first compound 0.0316 µM
[2] = second compound 0.0316 µM, first compound 0.1 µM
[3] = second compound 0.0316 µM, first compound 0.316 µM
[4] = second compound 0.0316 µM, first compound 1 µM
[5] = second compound 0.0316 µM, first compound 3.16 µM
[6] = second compound 0.0316 µM, first compound 10 µM
[7] = second compound 0.1 µM, first compound 0.0316 µM
[8] = second compound 0.1 µM, first compound 0.1 µM
[9] = second compound 0.1 µM, first compound 0.316 µM
[10] = second compound 0.1 µM, first compound 1 µM
[11] = second compound 0.1 µM, first compound 3.16 µM
[12] = second compound 0.1 µM, first compound 10 µM
[13] = second compound 0.316 µM, first compound 0.0316 µM
[14] = second compound 0.316 µM, first compound 0.1 µM
[15] = second compound 0.316 µM, first compound 0.316 µM
[16] = second compound 0.316 µM, first compound 1 µM
[17] = second compound 0.316 µM, first compound 3.16 µM
[18] = second compound 0.316 µM, first compound 10 µM
[19] = second compound 1 µM, first compound 0.0316 µM
[20] = second compound 1 µM, first compound 0.1 µM
[21] = second compound 1 µM, first compound 0.316 µM
[22] = second compound 1 µM, first compound 1 µM
[23] = second compound 1 µM, first compound 3.16 µM
[24] = second compound 1 µM, first compound 10 µM
[25] = second compound 3.16 µM, first compound 0.0316 µM
[26] = second compound 3.16 µM, first compound 0.1 µM
[27] = second compound 3.16 µM, first compound 0.316 µM
[28] = second compound 3.16 µM, first compound 1 µM
[29] = second compound 3.16 µM, first compound 3.16 µM
[30] = second compound 3.16 µM, first compound 10 µM
[31] = second compound 10 µM, first compound 0.0316 µM
[32] = second compound 10 µM, first compound 0.1 µM
[33] = second compound 10 µM, first compound 0.316 µM
[34] = second compound 10 µM, first compound 1 µM
[35] = second compound 10 µM, first compound 3.16 µM
[36] = second compound 10 µM, first compound 10 µM
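Further: spheroids exposed to drugs for seven days before readout.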
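Wherever viability, T/C is given: percent viability relative to DMSO vehicle control taken as 100%.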

C#Cc1c(F)ccc2cc(O)cc(-c3ncc4c(N5CC6CCC(C5)N6)nc(OCC56CCCN5CC(F)C6)nc4c3F)c12 (stereo unspecified) + COC1C(OC(N)=O)C(O)C(Oc2ccc3c(O)c(NC(=O)c4ccc(O)c(CC=C(C)C)c4)c(=O)oc3c2C)OC1(C)C
> 10 µM: IC50 (second compound 0.0316 µM) | IC50 (second compound 0.1 µM) | IC50 (second compound 0.316 µM) | IC50 (second compound 1 µM) | IC50 (second compound 3.16 µM) | IC50 (second compound 10 µM)
inactive: viability, T/C [1] 89% | viability, T/C [2] 85.8% | viability, T/C [3] 84.4% | viability, T/C [4] 81% | viability, T/C [5] 97.9% | viability, T/C [6] 88.6% | viability, T/C [7] 95.8% | viability, T/C [8] 78.2% | viability, T/C [9] 92.1% | viability, T/C [10] 75.5% | viability, T/C [11] 77.4% | viability, T/C [12] 95% | viability, T/C [13] 91% | viability, T/C [14] 83.9% | viability, T/C [15] 79.7% | viability, T/C [16] 84.5% | viability, T/C [17] 87.6% | viability, T/C [18] 93.4% | viability, T/C [19] 80.8% | viability, T/C [20] 84.3% | viability, T/C [21] 89.9% | viability, T/C [22] 86.8% | viability, T/C [23] 75% | viability, T/C [24] 93.9% | viability, T/C [25] 78.5% | viability, T/C [26] 81.7% | viability, T/C [27] 90.2% | viability, T/C [28] 78.5% | viability, T/C [29] 89.7% | viability, T/C [30] 96.8% | viability, T/C [31] 75.3% | viability, T/C [32] 85.8% | viability, T/C [33] 103% | viability, T/C [34] 79.4% | viability, T/C [35] 75.8% | viability, T/C [36] 106%

C=CC(=O)N1CCN(c2nc(=O)n(-c3c(C)ccnc3C(C)C)c3nc(-c4c(O)cccc4F)c(F)cc23)C(C)C1 (stereo unspecified) + COC1C(OC(N)=O)C(O)C(Oc2ccc3c(O)c(NC(=O)c4ccc(O)c(CC=C(C)C)c4)c(=O)oc3c2C)OC1(C)C
inactive: viability, T/C [1] 87.3% | viability, T/C [2] 78.7% | viability, T/C [3] 91.3% | viability, T/C [4] 85.1% | viability, T/C [5] 85.7% | viability, T/C [6] 72.1% | viability, T/C [7] 87.3% | viability, T/C [8] 87.2% | viability, T/C [9] 82.2% | viability, T/C [10] 91.1% | viability, T/C [11] 87.9% | viability, T/C [12] 95% | viability, T/C [13] 91.2% | viability, T/C [14] 86.7% | viability, T/C [15] 86.8% | viability, T/C [16] 85.1% | viability, T/C [17] 79.3% | viability, T/C [18] 82.6% | viability, T/C [19] 92.1% | viability, T/C [20] 94.8% | viability, T/C [21] 93.9% | viability, T/C [22] 88.8% | viability, T/C [23] 73.8% | viability, T/C [24] 95.8% | viability, T/C [25] 73.2% | viability, T/C [26] 84.6% | viability, T/C [27] 82.9% | viability, T/C [28] 85% | viability, T/C [29] 85.9% | viability, T/C [30] 72.1% | viability, T/C [31] 91.1% | viability, T/C [32] 85.1% | viability, T/C [33] 81.5% | viability, T/C [34] 80.5% | viability, T/C [35] 86% | viability, T/C [36] 89.4%
> 10 µM: IC50 (second compound 0.0316 µM) | IC50 (second compound 0.1 µM) | IC50 (second compound 0.316 µM) | IC50 (second compound 1 µM) | IC50 (second compound 3.16 µM) | IC50 (second compound 10 µM)

CCc1cc2c(N3CCc4c(cc(Cn5ccnc5)cc4-c4cn(C)nc4C(F)(F)F)C3=O)cc(C)nc2c(OC)n1 + COC1C(OC(N)=O)C(O)C(Oc2ccc3c(O)c(NC(=O)c4ccc(O)c(CC=C(C)C)c4)c(=O)oc3c2C)OC1(C)C
2.07 µM: IC50 (second compound 3.16 µM)
1.22 µM: IC50 (second compound 0.0316 µM)
inactive: viability, T/C [1] 68.2% | viability, T/C [2] 63.2% | viability, T/C [3] 53.7% | viability, T/C [4] 53% | viability, T/C [5] 45.5% | viability, T/C [6] 48.5% | viability, T/C [7] 62.2% | viability, T/C [8] 62.3% | viability, T/C [9] 58.1% | viability, T/C [10] 51.3% | viability, T/C [11] 49.4% | viability, T/C [12] 41.7% | viability, T/C [13] 68.5% | viability, T/C [14] 63.6% | viability, T/C [15] 63.8% | viability, T/C [16] 52.6% | viability, T/C [17] 49.2% | viability, T/C [18] 46.3% | viability, T/C [19] 66.4% | viability, T/C [20] 69.4% | viability, T/C [21] 58.1% | viability, T/C [22] 54.6% | viability, T/C [23] 43.8% | viability, T/C [24] 37.8% | viability, T/C [25] 68.4% | viability, T/C [26] 59.6% | viability, T/C [27] 50.1% | viability, T/C [28] 55.8% | viability, T/C [29] 50% | viability, T/C [30] 46.5% | viability, T/C [31] 77% | viability, T/C [32] 58.7% | viability, T/C [33] 61.5% | viability, T/C [34] 55.7% | viability, T/C [35] 54.9% | viability, T/C [36] 42.2%
1.5 µM: IC50 (second compound 1 µM)
2.13 µM: IC50 (second compound 0.1 µM)
3.15 µM: IC50 (second compound 10 µM)
3.32 µM: IC50 (second compound 0.316 µM)
